From patent publication US20210405025A1, “IDENTIFYING COMPOUNDS FOR TREATING CANCER AND USE THEREOF” (THE UAB RESEARCH FOUNDATION, priority 2018, published 2021) come the findings set out here.

The test has as its system relapsed AML cells. In words: Drug sensitivity assay, 1,536-well, 3-day culture with individual approved drugs at 10 μM, viability by alamarBlue. It counts as cell-based, human. The method in brief:
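Three-day exposure of primary AML cells to individual drugs in 1,536-well format, viability read as percent live cells. Cells were thawed, cultured overnight, sorted by FACS for viable blasts and plated at 4,000-4,500 cells/5 μL in cytokine-supplemented IMDM/BIT medium.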
(In general: The colour change of resazurin is a common sign of viable cells or microbes.)

Where [1] appears, read: number of relapsed AML cases out of 18 tested with >70% cell death, 10 μM, 3-day culture.

Where a name gives a salt, the structure may show the parent alone. Read-outs that look alike come from different tables or passages of the source.

For `Cc1cc(CC(C)CC(C)(C)C)n(O)c(=O)c1.NCCO` (stereo not drawn) [PIROCTONE OLAMINE], under setting [1], the “#Cases >70% cell death” value is given as 13. As to `CC(=O)[C@H]1CC[C@H]2[C@@H]3C=CC4=CC(=O)CC[C@@]4(C)[C@@H]3CC[C@]12C` [DYDROGESTERONE], the “#Cases >70% cell death” value under setting [1] worked out at 1. Still for that read-out and setting: to `C[C@]12CC[C@@H]3c4ccc(O)cc4CC[C@H]3[C@@H]1CC[C@@H]2OC(=O)CCC1CCCC1` [ESTRADIOL CYPIONATE] belongs 2; to `OC1(c2ccc(Cl)c(C(F)(F)F)c2)CCN(CCCC(c2ccc(F)cc2)c2ccc(F)cc2)CC1` [PENFLURIDOL], 14; to `C[C@H]1O[C@@H](O[C@H]2[C@@H](O)C[C@H](O[C@H]3[C@@H](O)C[C@H](O[C@H]4CC[C@@]5(C)[C@H](CC[C@@H]6[C@@H]5C[C@@H](O)[C@]5(C)[C@@H](C7=CC(=O)OC7)CC[C@]65O)C4)O[C@@H]3C)O[C@@H]2C)C[C@H](O)[C@@H]1O` [DIGOXIN], 18.

Take `Cc1ncc(-c2ccnc(Nc3ccc(S(C)(=O)=O)cc3)n2)n1C(C)C` [AZD-5438]: the “#Cases >70% cell death” value under setting [1] was found to be 17. Regarding `Oc1c(Cl)cc(Cl)c2cccnc12` [CHLOROXINE], under setting [1], the “#Cases >70% cell death” value is listed as 1.

In the case of `CCc1ccc(OCc2ccccc2C(=O)Nc2ccc3nc(C)cc(N)c3c2)cc1` [JTC-801], the “#Cases >70% cell death” value under setting [1] stood at 18.

With `CC[C@@]1(O)C(=O)OCc2c1cc1n(c2=O)Cc2cc3cc(O)ccc3nc2-1` [10-HYDROXYCAMPTOTHECIN], the “#Cases >70% cell death” value under setting [1] is listed as 12. On the same count and under the same terms, under `CCCOc1cc(N)ccc1C(=O)OCCN(CC)CC` [PROPOXYCAINE HYDROCHLORIDE] stands 1. Consider `CCCCCCCCCCCCCCCC[n+]1ccccc1`, for which the “#Cases >70% cell death” value is 18. Consider `O=C(CCCCCCC(=O)Nc1ccccc1)NO` [VORINOSTAT], for which, under setting [1], the “#Cases >70% cell death” value worked out at 18. Regarding `Cc1cc(C2CCCCC2)n(O)c(=O)c1` [CICLOPIROX], the “#Cases >70% cell death” value under setting [1] came to 14. Consider `COCCn1c2c([n+](Cc3cnccn3)c1C)C(=O)c1ccccc1C2=O` [YM-155], for which the “#Cases >70% cell death” value under setting [1] worked out at 18. `CN(C)c1ccc2nc3ccc(=[N+](C)C)cc-3sc2c1` [METHYLENE BLUE]: under setting [1], the “#Cases >70% cell death” value came to 18. For BENZALKONIUM CHLORIDE, the “#Cases >70% cell death” value under setting [1] worked out at 15.

On to `CN(C)CCCOc1nn(Cc2ccccc2)c2ccccc12` [BENZYDAMINE], for which the “#Cases >70% cell death” value under setting [1] was 4. Regarding `CC(C)(C)c1cnc(CSc2cnc(NC(=O)C3CCNCC3)s2)o1` [BMS-387032], under setting [1], the “#Cases >70% cell death” value is on record as 18. For `CC(=O)[C@]1(O)Cc2c(O)c3c(c(O)c2[C@@H](O[C@H]2C[C@H](N)[C@H](O)[C@H](C)O2)C1)C(=O)c1ccccc1C3=O` [IDARUBICIN], the “#Cases >70% cell death” value under setting [1] came out at 18.

On to `C#C[C@]1(O)CC[C@H]2[C@@H]3CCc4cc(O)ccc4[C@H]3CC[C@@]21C` [ETHINYL ESTRADIOL], for which the “#Cases >70% cell death” value under setting [1] is listed as 1.

In the case of `O=C(O)/C=C/c1ccc(-c2ccc(O)c(C34CC5CC(CC(C5)C3)C4)c2)cc1` [ADAROTENE], the “#Cases >70% cell death” value under setting [1] turned out to be 11. `Cc1cnc(C(=O)O)c[n+]1[O-]` [ACIPIMOX]: the “#Cases >70% cell death” value under setting [1] is recorded as 1. For `C[C@@H]1C[C@@H]([C@H](O)CC2CC(=O)NC(=O)C2)C(=O)[C@@H](C)C1` [CYCLOHEXIMIDE], the “#Cases >70% cell death” value under setting [1] came out at 18.

In the case of `CCN(CC)CCOc1ccc(Cc2ccccc2)cc1` [TESMILIFENE HYDROCHLORIDE], under setting [1], the “#Cases >70% cell death” value worked out at 9. For the compound `Clc1ccccc1CN1CCc2sccc2C1` [TICLOPIDINE], the “#Cases >70% cell death” value under setting [1] is given as 1. Still for that read-out and setting: to `N#CCNC(=O)c1ccc(-c2ccnc(Nc3ccc(N4CCOCC4)cc3)n2)cc1` [CYT387] belongs 14; to `CC(=O)[C@@]1(O)CC[C@H]2[C@@H]3C[C@H](C)C4=CC(=O)C=C[C@]4(C)[C@@]3(F)[C@@H](O)C[C@@]21C` [FLUOROMETHOLONE], 2.

As to `CCCC(=O)O[C@]1(C(=O)COC(C)=O)CC[C@H]2[C@@H]3C[C@H](F)C4=CC(=O)C=C[C@]4(C)[C@@]3(F)[C@@H](O)C[C@@]21C` [DIFLUPREDNATE], the “#Cases >70% cell death” value under setting [1] was 1. In the case of `O=C(c1ccc(/C=C/c2n[nH]c3ccccc23)cc1)N1CCNCC1` [KW-2449], the “#Cases >70% cell death” value under setting [1] is on record as 9. For `C#C[C@]1(O)CC[C@H]2[C@@H]3CCC4=Cc5oncc5C[C@]4(C)[C@H]3CC[C@@]21C` [DANAZOL], under setting [1], the “#Cases >70% cell death” value turned out to be 1. In the case of `COc1ncnc(NS(=O)(=O)c2ccc(N)cc2)c1OC` [SULFADOXINE], the “#Cases >70% cell death” value under setting [1] is 1. Same read-out and setting: under `C#CCC(Cc1cnc2nc(N)nc(N)c2n1)c1ccc(C(=O)N[C@@H](CCC(=O)O)C(=O)O)cc1` (stereo partly drawn) [PRALATREXATE(FOLOTYN, PRALATREXATE] stands 5; under `CC[C@]1(O)C[C@H]2CN(CCc3c([nH]c4ccccc34)[C@@](C(=O)OC)(c3cc4c(cc3OC)N(C=O)[C@H]3[C@@](O)(C(=O)OC)[C@H](OC(C)=O)[C@]5(CC)C=CCN6CC[C@]43[C@@H]65)C2)C1` [VINCRISTINE], 14. As for `CC(C)(C)c1[nH]cnc1/C=c1\[nH]c(=O)/c(=C/c2ccccc2)[nH]c1=O` [PLINABULIN], the “#Cases >70% cell death” value under setting [1] was found to be 12. On to `Cc1c(Nc2ncccc2C(=O)O)cccc1C(F)(F)F` [FLUXININ], for which, under setting [1], the “#Cases >70% cell death” value worked out at 3. Still for that read-out and setting: under ABAMECTIN stands 18. With `COC(=O)C1=C(C)NC(C)=C(C(=O)OCCCN2CCC(c3ccccc3)(c3ccccc3)CC2)[C@H]1c1cccc([N+](=O)[O-])c1` [NIGULDIPINE], the “#Cases >70% cell death” value is 12. Consider `CCC[C@H](Nc1nc(-c2ccc(NC(=O)NCC)c(OC)c2)ncc1C)c1cccnc1` [LEXIBULIN], for which the “#Cases >70% cell death” value under setting [1] is 13. Turning to `C[C@@H]1C[C@H]2[C@@H]3CCC4=CC(=O)C=C[C@]4(C)[C@@]3(F)[C@@H](O)C[C@]2(C)[C@@]1(O)C(=O)CO` [DEXAMETHASONE], the “#Cases >70% cell death” value under setting [1] is on record as 2. For the compound `C[C@@H]1CCN(C(=O)CC#N)C[C@@H]1N(C)c1ncnc2[nH]ccc12` [TOFACETINIB], the “#Cases >70% cell death” value under setting [1] came out at 4. In the case of `C[C@@]1(C(=O)Nc2ccc(F)nc2)CCCN1c1nc(Nc2cc(C3CC3)n[nH]2)c2cccn2n1` [BMS-754807], the “#Cases >70% cell death” value under setting [1] is 1. Same read-out and setting: to `Cc1ncc2c(c1O)COC2c1ccc(Cl)cc1` (stereo not drawn) [CICLETANINE] belongs 4; to `COc1cc([C@@H]2c3cc4c(cc3[C@@H](O[C@@H]3O[C@@H]5CO[C@@H](c6cccs6)O[C@H]5[C@H](O)[C@H]3O)[C@H]3COC(=O)[C@H]23)OCO4)cc(OC)c1O` [TENIPOSIDE], 10; to `CNC(=O)c1cc(Oc2ccc(NC(=O)Nc3ccc(Cl)c(C(F)(F)F)c3)c(F)c2)ccn1` [REGORAFENIB], 9. On to `CC1=C(/C=C/C(C)=C/C=C/C(C)=C/C(=O)Nc2ccc(O)cc2)C(C)(C)CCC1` [FENRETINIDE], for which the “#Cases >70% cell death” value under setting [1] turned out to be 9. VINFLUNINE TARTRATE: under setting [1], the “#Cases >70% cell death” value came out at 14. On the same count and under the same terms, under `CN(C)C(=O)n1cc(C(=O)c2ccn3c2CS[C@@H]3c2cccnc2)c2ccc(-c3ccc(F)cc3)cc21` [A-85783] stands 9; under `CN[C@@H]1[C@@H](O)[C@@H](O[C@@H]2[C@@H](O)[C@H](O[C@H]3OC(CN)=CC[C@H]3N)[C@@H](N)C[C@H]2N)OC[C@]1(C)O` [SISOMICIN], 10.
